In patent US20260265329A1, “POLYPEPTIDE AND DERIVATIVE THEREOF, COMPOSITION, AND USE THEREOF” (HANGZHOU SCIWIND BIOSCIENCES CO., LTD., priority 2023, published 2026):
Starred links: 1 amine or outer side, 2 acyl side, 3 side chain; linkers in the order of their positions; H or OH if unused. Non-standard residues stand in square brackets, D forms with d. Residues, ends and D or L forms follow the SMILES beside them. *: point of attachment. C20 diacid = O=C(O)CCCCCCCCCCCCCCCCCCC(=O)*; γGlu = O=C(O)[C@H](CCC(=O)[*:2])N[*:1]; Hyp = O=C(O)[C@@H]1C[C@@H](O)CN1

Key:
[1] = Heat accelerated stability assay, 40° C., detection on 10 d and 20 d; assay type: physicochemical; settings: 1 mg/mL, pH about 7.4, 40° C.
Outline: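 Polypeptide derivatives at 1 mg/mL with sodium dihydrogen phosphate (1.42 mg/mL) in water, pH ~7.4, sterile-filtered and held at 40° C. Sampled at 10 d and 20 d, centrifuged, and supernatant analysed by HPLC (214 nm, 25° C., phosphate pH 5.8/ACN gradient) for concentration and purity.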

human amylin receptors = target: T1, human amylin receptors (Homo sapiens, UniProt O60896+P30988); test: Luciferase assay in stably transfected amylin receptor/CRE-luc CHO cell line; assay type: cell-based; settings: for Relative activity: EC50 ratio of Cagrilintide to the compound, Cagrilintide 100%
T1 construct: host or cells: CHO-K1/Ga15/AMY3 cells, further stably transfected with a CRE-luciferase plasmid
T1 sequence (P30988 25-474): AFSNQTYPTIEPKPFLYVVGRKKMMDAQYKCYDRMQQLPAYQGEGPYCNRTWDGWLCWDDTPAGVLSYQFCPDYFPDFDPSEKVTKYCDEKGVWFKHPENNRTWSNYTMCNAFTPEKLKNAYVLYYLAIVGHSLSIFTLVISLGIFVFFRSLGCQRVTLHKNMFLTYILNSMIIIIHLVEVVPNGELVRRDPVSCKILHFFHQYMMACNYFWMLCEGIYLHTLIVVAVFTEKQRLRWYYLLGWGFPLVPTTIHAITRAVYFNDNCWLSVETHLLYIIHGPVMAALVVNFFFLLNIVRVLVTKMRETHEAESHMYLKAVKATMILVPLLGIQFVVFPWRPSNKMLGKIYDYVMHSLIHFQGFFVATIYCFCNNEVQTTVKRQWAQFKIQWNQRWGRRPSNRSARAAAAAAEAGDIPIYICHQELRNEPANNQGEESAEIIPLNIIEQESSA
T1 sequence (O60896 24-148 partner): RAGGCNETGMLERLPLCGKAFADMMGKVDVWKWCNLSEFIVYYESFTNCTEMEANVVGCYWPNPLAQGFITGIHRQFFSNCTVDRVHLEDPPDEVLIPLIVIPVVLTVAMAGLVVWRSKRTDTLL

[2] = Efficacy assay in SD rats, dose-dependent study (Example 5); assay type: in vivo
Protocol: SPF male SD rats (7-8 weeks, 220-230 g) were employed in this study after health inspection and quarantine. The experimental animals were exposed to a room temperature of 20° C.-23° C. and a relative humidity of 40%-50%, and were provided with Co60 mouse reproduction feed 1035 and purified water supplied with water feeding bottles for free intake throughout the health inspection and quarantine and the study. […] Using a single dose administered via subcutaneous injection, the study lasted for a total of 6 days with the day of administration designated as Day 1/Time 0 (TO), wherein on Day 0, the initial body weight of the animals were recorded and the initial feed was added, and on Day 1-Day 5, the body weight of the studied animals as well as the remaining food were recorded daily for calculating the percentage of weight change and the amount of food intake, any anomalies during which were required to be recorded and reported. During the study, the rats were in good condition and no anomaly was observed. Weight change=(BWTn−BWT0)/BWT0* 100%, wherein BW represented the value of body weight, and T0 and Tn represented the time points of dosing and n hours post dose respectively. Dots in the figures were represented utilizing mean±standard error of the mean (SEM). Accumulated food intake was the total amount of food intake for each of the animals prior to a certain time point post dose.

[3] = Efficacy assay in DIO SD rats, dose-dependent study (Example 6); assay type: in vivo
Protocol: SPF male DIO SD rats (36-37 weeks, […], fed with high-fat diet for 34 weeks from 3-week age on) were employed in this study. The experimental animals were exposed to a room temperature of 20° C.-23° C. and a relative humidity of 40%-50%, and were provided with high-fat diet D12492 and purified water supplied with water feeding bottles for free intake throughout the construction of the DIO animal model and the study. Based on their mean body weight, the animals were assigned to 6 groups designated as B1-B6 (n=5). Administration via subcutaneous injection was conducted once a day for 10 continuous days, wherein the first day of administration was designated as Day 1 (D1), and on Day 0, the initial body weight of the animals were recorded and the initial feed was added, and on Day 1-Day 11, the body weight of the studied animals as well as the remaining food were recorded daily for calculating the percentage of weight change and the amount of food intake, any anomalies during which were required to be recorded and reported. During the study, the rats were in good condition and no anomaly was observed. Weight change=(BWDn−BWD1)/BWD1*100%, wherein BW represented the value of body weight, and D1 and Dn represented the first and Nth days of administration respectively. Dots in the figures were represented utilizing mean±standard error of the mean (SEM). Accumulated food intake was the total amount of food intake for animals of each group prior to a certain time point post dose.

in vivo = test: in vivo; set-up: species or system SD rats; settings: rat, sc, 1 mg/kg
Protocol: The animals received a subcutaneous injection of corresponding compounds for testing (1 mg/kg and 5 ml/kg), and the day of administration was designated as D1. The whole blood of the animals was collected pre dose (-10 min) on D1 and post dose at D1-2h, D1-4h, D1-6h, D2-24h, D3-48h, D4-72h, D5-96h, and D6-120 h and was processed into plasma (using EDTA for anticoagulation). Liquid chromatography-tandem mass spectrometry (LC-MS/MS) was used to detect the concentration of drug molecules in the plasma, and GraphPad Prism 10 was utilized to plot a concentration-time curve for the drugs whose pharmacokinetic parameters including Cmax, Tmax, T1/2, AUC, and MRT were then calculated with PKSolver.

[4] = Heat accelerated stability assay, 40° C., detection on 7 d and 28 d; assay type: physicochemical
Protocol: The derivatives (1 mg/mL) were mixed with sodium dihydrogen phosphate (1.42 mg/mL) and dissolved in ultrapure water. After adjusting pH to about 7.4 with hydrochloric acid/sodium hydroxide, the solution was filtered into a sterilized vial in a clean bench using a 0.22 μm sterile filter. The vial was then capped and placed into the stability test chamber at 40° C. Detections were made on Days 7 (7d) and 28 (28d), and during the assay, changes in the characteristics and properties of the polypeptides were observed and recorded. The sample was then centrifuged for 3 min at 10000 rpm at 4° C., and the supernatant was transferred to a liquid phase sample vial for detecting the concentration and purity of the polypeptides using liquid phase chromatography described as below.
Conditions of the reversed phase chromatography Flow rate: 1.0 mL/min; Autosampler temperature: 15° C.; Column temperature: 25° C.; Detection wavelength: 214 nm; Mobile phase A: 100% H2O+0.05% TFA; Mobile phase B: 100% ACN; and Gradient of elution listed in Table 4: […]

[5] = single subcutaneous dose 10, 30, 100 nmol/kg (FIGS. 3A-3D)
[6] = subcutaneous once a day for 10 days, 3 and 10 nmol/kg (FIGS. 4A, 4B)

For CC[C@H](C)[C@H](NC(=O)[C@@H]1CCCN1C(=O)[C@H](CCCCN)NC(=O)[C@H](CC(C)C)NC(=O)[C@H](CCC(N)=O)NC(=O)[C@H](CCC(N)=O)NC(=O)[C@H](CO)NC(=O)[C@H](CO)NC(=O)[C@H](Cc1c[nH]cn1)NC(=O)[C@H](CCCNC(=N)N)NC(=O)[C@H](CC(C)C)NC(=O)[C@H](Cc1ccccc1)NC(=O)[C@H](CC(=O)O)NC(=O)[C@H](C)NC(=O)[C@H](CC(C)C)NC(=O)[C@H](CCCNC(=N)N)NC(=O)[C@H](CCC(N)=O)NC(=O)[C@@H](NC(=O)[C@H](C)NC(=O)[C@H](C)NC(=O)[C@@H](NC(=O)[C@H](CO)NC(=O)[C@H](CC(C)C)NC(=O)[C@H](CCC(N)=O)NC(=O)[C@H](CO)NC(=O)[C@H](C)NC(=O)CC[C@H](NC(=O)CCCCCCCCCCCCCCCCCCC(=O)O)C(=O)O)[C@@H](C)O)[C@@H](C)O)C(=O)N[C@@H](CC(C)C)C(=O)N1CCC[C@H]1C(=O)N1CCC[C@H]1C(=O)N[C@H](C(=O)N[C@@H](CC(N)=O)C(=O)N[C@H](C(=O)NCC(=O)N[C@@H](CO)C(=O)N[C@@H](CC(N)=O)C(=O)N[C@H](C(=O)N1C[C@H](O)C[C@H]1C(N)=O)[C@@H](C)O)C(C)C)[C@@H](C)O [M41] ({C20 diacid-γGlu}-ASQLSTAATQRLADFLRHSSQQLKPILPPTNVGSNT[Hyp]-NH2), the “Reduction in purity, 10 d” value [1] was 2.93%, the “Reduction in purity, 20 d” value ([1]; 20 d) was 4.26% and the Relative activity (human amylin receptors) was 113%. For the same compound, the EC50 (human amylin receptors; amylin receptor/CRE-luc CHO cells, 24 hours incubation, luminescence) was 0.08 nM, the “Body weight and food intake reduction compared with Cagrilintide” value ([2]; equivalent dosage) was “performed better than Cagrilintide at the equivalent dosage” and the “Effect on body weight” value [2, 5] was “dose-dependently reduced”. The “Effect on food intake” value [2, 5] was “dose-dependently reduced”, the “Body weight and food intake reduction compared with Cagrilintide” value ([3]; equivalent dosage) was “performed better than Cagrilintide at the equivalent dosage” and the “Effect on body weight” value [3, 6] was “dose-dependently reduced”. The “Effect on food intake” value [3, 6] was “dose-dependently reduced”, the AUC(0-inf) (in vivo; male, SD) was 257 µg·h/mL and the AUC(0-t) (in vivo; male, SD) was 250 µg·h/mL. It also gave a Cmax (in vivo; male, SD) of 4780 ng/mL, an MRT inf (in vivo; male, SD) of 45.9 h and a Tmax (in vivo; male, SD) of 24 h. It also gave a half-life (in vivo; male, SD) of 1420 min.
In the case of CC[C@H](C)[C@H](NC(=O)[C@@H]1CCCN1C(=O)CNC(=O)[C@H](Cc1ccccc1)NC(=O)[C@H](CC(N)=O)NC(=O)[C@H](CC(N)=O)NC(=O)[C@H](CO)NC(=O)[C@H](CO)NC(=O)[C@H](Cc1c[nH]cn1)NC(=O)[C@H](CCCNC(=N)N)NC(=O)[C@H](CC(C)C)NC(=O)[C@H](Cc1ccccc1)NC(=O)[C@H](CCC(=O)O)NC(=O)[C@H](C)NC(=O)[C@H](CC(C)C)NC(=O)[C@H](CCCNC(=N)N)NC(=O)[C@H](CCC(N)=O)NC(=O)[C@@H](NC(=O)[C@H](C)NC(=O)[C@@H]1CSSC[C@H](NC(=O)[C@H](CCCCN)NC(=O)CC[C@H](NC(=O)CCCCCCCCCCCCCCCCCCC(=O)O)C(=O)O)C(=O)N[C@@H](CC(N)=O)C(=O)N[C@@H]([C@@H](C)O)C(=O)N[C@@H](C)C(=O)N[C@@H]([C@@H](C)O)C(=O)N1)[C@@H](C)O)C(=O)N[C@@H](CC(C)C)C(=O)N1CCC[C@H]1C(=O)N1CCC[C@H]1C(=O)N[C@H](C(=O)N[C@@H](CC(N)=O)C(=O)N[C@H](C(=O)NCC(=O)N[C@@H](CO)C(=O)N[C@@H](CC(N)=O)C(=O)N[C@H](C(=O)N1CCC[C@H]1C(N)=O)[C@@H](C)O)C(C)C)[C@@H](C)O [Cagrilintide, reference compound], the “Purity from the reversed phase chromatography-214 nm, 0 d” value ([4]; 1 mg/mL, pH about 7.4, 40° C., 0 d) is reported as 90.04, the “Purity from the reversed phase chromatography-214 nm, 7 d” value ([4]; 1 mg/mL, pH about 7.4, 40° C., 7 d) is reported as 82.03 and the “Purity from the reversed phase chromatography-214 nm, 28 d” value ([4]; 1 mg/mL, pH about 7.4, 40° C., 28 d) is reported as 73.89. The “Change (7 d − 0 d)” value ([4]; purity on 7 d − purity on 0 d, 40° C., pH about 7.4) was −8.01, the “Change (28 d − 0 d)” value ([4]; purity on 28 d − purity on 0 d, 40° C., pH about 7.4) was −16.15 and the “Reduction in purity, 10 d” value [1] was 44.83%. For the same compound, the Relative activity (human amylin receptors) was 100%, the AUC(0-inf) (in vivo) was 177 µg·h/mL and the AUC(0-t) (in vivo) was 173 µg·h/mL. For the same compound, the Cmax (in vivo) was 3270 ng/mL, the MRT inf (in vivo) was 43.4 h and the Tmax (in vivo) was 24 h. It also gave a half-life (in vivo) of 1480 min.
